Source: patent publication US9044474B2, “Compositions and methods for increasing drug efficacy in cancer” (The Ohio State University, priority 2010, dated 2015)

How the values were obtained:
CLL cells [1] = assay: LC3 confocal immunofluorescence (autophagosome formation) in CLL cells in vitro; assay type: cell-based, human; details: CLL patient cells, 4 hours; rapamycin 5 μM, thapsigargin 1 μM, F-ara-A 5 μM, chlorambucil 20 μM, CAL-101 1 μM, rituximab 10 μg/ml, flavopiridol 2 μM, CQ 0.5 μM
Experimental: (§1) After 4 hours exposure to agents, cells were washed in phosphate-buffered saline (PBS) and made adherent on a microscope slide by centrifugation in a Cytospin3 (Shandon) centrifuge. Immediately after cytospin, cells were fixed in cold acetone. […] Nuclei were stained blue with DAPI (Vector Laboratories, Burlingame, Calif.). Images were taken using a 60× objective and 4× digital zoom with Olympus Fluoview 1000 Laser Scanning Confocal microscope at the Ohio State University Campus Microscopy and Imaging Facility. ATF6 antibody was purchased from LifeSpan Biosciences (Seattle, Wash.) and Nrf2 was from Santa Cruz Biotechnology (Santa Cruz, Calif.). Nuclei were evaluated for ATF6 and Nrf2 using confocal microscopy to collect Z stacks, approximately 45 slices per cell, 0.2 μm each.
LC3 intensity and number of dots per cell were both assessed in the fluorescence images. Integrated intensity was measured using Metamorph v.7.0. To calculate the number of “dots” (local extreme point in pixel-intensity profile at which a number of high-intensity pixels form a cluster), a Gaussian filter was first applied to reduce noise. Cells were enumerated electronically by an improved watershed-based algorithm. To quantify co-localization, two binary nuclei images—red (R) and green (G)—are obtained. The correlation value is calculated as the number of white pixels of (R&G) divided by the number of pixels of (RIG), where (R&G) is the intersection of R and G, and (RIG) is the union of R and G. The program used for cell counts and measurement of correlation index is based on MatLab software (Natick, Mass.) and it was developed by members of Department of Biomedical Informatics, The Ohio State University.

CLL cells [2] = assay: LC3-Lamp2 co-localization (autophagosome-lysosome fusion) by confocal microscopy in CLL cells; assay type: cell-based, human; details: CLL cells incubated with 5 μM rapamycin (FIG. 9)
Experimental: as §1
LC3 intensity and number of dots per cell were both assessed in the fluorescence images. Integrated intensity was measured using Metamorph v.7.0. To calculate the number of “dots” (local extreme point in pixel-intensity profile at which a number of high-intensity pixels form a cluster), a Gaussian filter was first applied to reduce noise. Cells were enumerated electronically by an improved watershed-based algorithm. To quantify co-localization, two binary nuclei images—red (R) and green (G)—are obtained. […]

CLL cells [3] = assay: Cell viability by annexin V/PI flow cytometry in CLL cells
Experimental: Percent of live cells was determined by staining with annexin V-fluorescein isothiocyanate and propidium iodide (PI). After exposure to agents, cells were washed with PBS and stained in 1× binding buffer (BD Biosciences, Franklin Lakes, N.J.). Cell viability was assessed by flow cytometry using a Beckman-Coulter Cytomics FC500 cytometer. Data were analyzed with the CXP Cytometer software package (Beckman-Coulter). A total of 10,000 cells were counted for each sample. The cells treated with flavopiridol were washed after 4 hours with PBS and re-suspended in regular growth medium (RPMI 1640) supplemented with 10% human serum and antibiotics for the remainder of the incubation time. […] For all the other conditions, cells were incubated with the respective drugs for 24 hours continuously.
CLL cells were suspended in buffer V (Amaxa kit, Lonza, Allendale, N.J.) and nucleofection was performed using program U016 (5 μg siRNA and 1×10^7 cells per cuvette). Scrambled siRNA and siRNAs to ATG5, ATG7 and ASK1 were purchased from Sigma-Aldrich. Cells were immediately suspended in warm, complete media supplemented with 10% human serum, and RNA was extracted after 36 hours. For CDK1 and CDK5, siRNAs were purchased from Applied Biosystems (Carlsbad, Calif.). Transfections were done using 5 nM siRNA per cuvette, and RNA was harvested at 48 hours.

XBP1, IRE1, GRP78 = assay: Real-time RT-PCR of ER stress genes in CLL cells in vitro; assay type: cell-based, human; details: CLL cells n=5; flavopiridol 2 μM, thapsigargin 1 μM, tunicamycin 3 μg/ml; CD52 control gene
Experimental: (§2) RNA was extracted using TRIzol reagent (Invitrogen, Carlsbad, Calif.) and purified using QIAGEN RNeasy columns (Qiagen, Valencia, Calif.). cDNA was prepared with SuperScript First-Strand Synthesis System (Invitrogen). Real-time PCR was performed using primers purchased from Applied Biosystems. Detection was performed using an ABI Prism 7700 sequence detection system (Applied Biosystems). Average relative expression (treatment compared with vehicle) was normalized to the internal control gene CD52. Primers to detect spliced XBP1 were designed using Primer 3 software and purchased from IDT. Samples were analyzed on 10% acrylamide gels.

PERK = PERK activity by eIF2α phosphorylation immunoblot in CLL cells; assay type: cell-based, human
Experimental: (§3) Proteins extracted from whole cell lysates (50 μg/lane) were separated on polyacrylamide gels and transferred on nitrocellulose membrane. Antibodies used for immunoblots included LC3, IRE1α, TRAF2, PI3K III, ATG4C, ATG5-12, UVRAG, Beclin-1 (Cell Signaling, Boston, Mass.), GAPDH, Nrf2, ASK1, ULK1 (Santa Cruz Biotechnology), and Bif-1, ATG14-Barkor (Sigma-Aldrich, St Louis, Mo.). Species-appropriate secondary antibodies were obtained from BioRad Laboratories (Hercules, Calif.). Following antibody incubations, proteins were detected using a chemiluminescent substrate (BioRad Laboratories). For co-immunoprecipitations, TrueBlot beads (eBiosciences, San Diego, Calif.) and One-hour IP Western kit (GenScript, Piscataway, N.J.) were used according to manufacturer protocols. Quantification was done using FluorChem Q (Alpha Innotech, San Leandro Calif.).

Jurkat cell line = assay: eIF2α phosphorylation immunoblot in cell lines (control); assay type: cell-based
Experimental: as §3

IRE1 = assay: XBP1 splicing (IRE1 activity) PCR in CLL cells; assay type: cell-based, human; details: for induction of XBP1 splicing: CLL samples
Experimental: as §2

[4] = system: cell lines 293T, RAW and 697, normal B cells; assay: XBP1 splicing PCR in normal B cells and cell lines; assay type: cell-based
Experimental: as §2

ATF6 = ATF6 nuclear translocation by confocal fluorescence microscopy in CLL cells; assay type: cell-based, human; details: CLL patient cells, flavopiridol 2 μM or thapsigargin 1 μM, 4 hours
Experimental: After 4 hours exposure to agents, cells were washed in phosphate-buffered saline (PBS) and made adherent on a microscope slide by centrifugation in a Cytospin3 (Shandon) centrifuge. Immediately after cytospin, cells were fixed in cold acetone. Next, the cells were incubated in blocking solution (2% bovine serum albumin in PBS) and stained for LC3 (Cell Signaling, Boston, Mass.)) and Lamp2 (Santa Cruz Biotechnology, Santa Cruz, Calif.) by incubating separately with the respective primary antibodies over night, in 4° C., followed by incubation with fluorescent secondary antibodies (Invitrogen, Carlsbad, Calif.): Alexa fluor 594 (red) anti-rabbit for LC3 and Alexa fluor 488 (green) anti-mouse for Lamp2. Nuclei were stained blue with DAPI (Vector Laboratories, Burlingame, Calif.). Images were taken using a 60× objective and 4× digital zoom with Olympus Fluoview 1000 Laser Scanning Confocal microscope at the Ohio State University Campus Microscopy and Imaging Facility. ATF6 antibody was purchased from LifeSpan Biosciences (Seattle, Wash.) and Nrf2 was from Santa Cruz Biotechnology (Santa Cruz, Calif.). Nuclei were evaluated for ATF6 and Nrf2 using confocal microscopy to collect Z stacks, approximately 45 slices per cell, 0.2 μm each.

697 cells = assay: ChIP assay of ATF6 at GRP78 promoter in 697 cells; assay type: cell-based; details: relative to IgG control
Experimental: In brief, cells were treated with 37% formaldehyde to ensure crosslinking of proteins to DNA. Cells were lysed and sonicated to shear the chromatin to fragments of approximately 500 bp. Sheared chromatin was incubated with ATF6 antibody (LifeSpan Biosciences, Seattle, Wash.), followed by precipitation, washing and reversing of the crosslinks Purified DNA was then analyzed by real-time quantitative PCR using primers to the GRP78 promoter region. Primers were designed using Primer 3 software and purchased from IDT (Coralville, Iowa).

JNK1 and p38MAPK = assay: Immunoblot of phosphorylated JNK1 and p38MAPK in CLL cells in vitro; assay type: cell-based, human; details: flavopiridol 2 μM, thapsigargin 1 μM, F-ara-A 5 μM
Experimental: as §3

caspase 4 = assay: Caspase 4 activity (AFC assay) in CLL cells treated in vitro; assay type: cell-based, human; details: Z-YVAD-FMK 20 μM in combination with flavopiridol, thapsigargin or tunicamycin
Experimental: (§4) The presence of active caspase enzymes was determined by the AFC assay. Briefly, lysates containing approximately 3×10^6 cells were incubated with 50 μM LEVD-AFC (caspase 4 substrate) or LETD-AFC (caspase 8 substrate) from MP Biomedicals (Solon, Ohio) in 2× cytobuffer from BioVision (Exton, Pa.) containing 10 mM dithiothretiol (DTT). Caspase 4 activity was measured one hour after addition of substrate and caspase 8 activity was measured 30 minutes after addition of substrate. Release of free AFC was measured with a Beckman-Coulter DTX 880 multimode detector (Filters: excitation, 405/10 nm; emission, 535/25 nm). Caspase 4 inhibitor Z-YVAD-FMK was purchased from R&D Systems.

caspase 8 = assay: Caspase 8 activity (AFC assay) in CLL cells treated in vitro; assay type: cell-based, human; details: Z-YVAD-FMK 20 μM in combination with flavopiridol, thapsigargin or tunicamycin
Experimental: as §4

O=C(O)CCCc1ccc(N(CCCl)CCCl)cc1 [chlorambucil]
LC3 aggregation / LC3 fluorescence (autophagosome formation) versus vehicle (CLL cells [1]): neither chlorambucil nor rituximab produced this effect

CCN(CC)CCCC(C)Nc1ccnc2cc(Cl)ccc12 (centres unmarked) [chloroquine]
chloroquine concentrations that inhibit autophagosome-lysosome fusion (CLL cells [2]): 0.1 to 0.5 µM

C/C=C(/C)C(=O)O[C@H]1C(C)=C2[C@H]([C@@H]1OC(=O)CCCCCCC)[C@@](C)(OC(C)=O)C[C@H](OC(=O)CCC)[C@@]1(O)[C@H]2OC(=O)[C@@]1(C)O [thapsigargin]
LC3 aggregation / LC3 fluorescence (autophagosome formation) versus vehicle (CLL cells [1]): increase in LC3 aggregation
effect of chloroquine addition on cell death caused by the agent (CLL cells [3]; CLL cells, annexin/PI negative, CQ 0.5 μM, flavopiridol 4 hours then washed, CQ continuous 24 hours): significantly enhanced
effect of ATG5/ATG7 siRNA vs scrambled siRNA on cytotoxicity of the agent (CLL cells [3]; human, 24 h, 1 μM): significantly (P=0.0047) enhanced
expression of ER stress genes XBP1, IRE1 and GRP78 (XBP1, IRE1, GRP78): significant, time-dependent increase in expression of ER stress genes XBP1, IRE1 and GRP78
PERK activity (phosphorylation of eIF2α) (PERK): minimally active
eIF2α phosphorylation (Jurkat cell line): dramatic EIF2α phosphorylation
IRE1 activity (splicing of IRE1 substrate XBP1) (IRE1; CLL cells): no evidence of IRE1 activity
induction of XBP1 splicing (IRE1): neither thapsigargin nor tunicamycin induced XBP1 splicing in any of the samples analyzed
XBP1 splicing [4]: XBP1 splicing is detected
ATF6 nuclear translocation (ATF6): increased nuclear translocation
binding of GRP78 promoter region by ATF6 (697 cells): enhanced binding of the GRP78 promoter region by ATF6
phosphorylation of JNK1 and p38MAPK (JNK1 and p38MAPK): induced the phosphorylation of both JNK1 and p38MAPK

Z-YVAD-FMK
effect on flavopiridol-mediated cell death (CLL cells [3]; CLL cells n=5, Z-YVAD-FMK 20 μM, flavopiridol 2 μM, 24 hours): significantly (P=0.012) reduced
inhibition of agent-induced caspase 4 activity (caspase 4): successfully inhibited
inhibition of agent-induced caspase 8 activity (caspase 8): successfully inhibited

rituximab: agent used in CLL, from Genentech
LC3 aggregation / LC3 fluorescence (autophagosome formation) versus vehicle (CLL cells [1]): neither chlorambucil nor rituximab produced this effect

tunicamycin
expression of ER stress genes XBP1, IRE1 and GRP78 (XBP1, IRE1, GRP78): significant, time-dependent increase in expression of ER stress genes XBP1, IRE1 and GRP78
induction of XBP1 splicing (IRE1): neither thapsigargin nor tunicamycin induced XBP1 splicing in any of the samples analyzed
